Set-up in all cases: key: 0: normal development; 1: Less damaged; 2: Slightly damaged; 3: Moderately damaged; 4: Severely damaged; 5: All killed
Assay [1] has as its system wheat. In words: Foliar spread test for upland field. The format is in vivo. As to conditions: foliar spray 500 ppm, 3 weeks, rank vs non-treated. An outline of the steps: (§1)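 Wettable powders at 500 ppm, with 0.5% surfactant, were sprayed uniformly over plants raised for roughly 2 weeks in glasshouse pots of volcanic ash soil. Herbicidal damage rated on a 0–5 scale (5 = all killed) after a further 3 weeks at an average 25 °C.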

In assay [2] the test system is sugar beat. Put plainly: Foliar spread test for upland field. The format is in vivo. As to conditions: foliar spray 500 ppm, 3 weeks, rank vs non-treated. An outline of the steps: as §1
The test system of assay [3] is corn. In words: Foliar spread test for upland field. As to conditions: foliar spray 500 ppm, 3 weeks, rank vs non-treated. Format: in vivo. An outline of the steps: as §1
Assay [4] has as its system solgum. Put plainly: Foliar spread test for upland field. As to conditions: foliar spray 500 ppm, 3 weeks, rank vs non-treated. The format is in vivo. An outline of the steps:
as §1

Assay [5] relates to barnyardgrass. Put plainly: Soil treatment test for upland field. Format: in vivo, Echinochloa crusgalli. As to conditions: 500 g/ha, glass house 25° C., 3 weeks. An outline of the steps: (§2)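 Seeds planted in Wagner pots of Ube soil (alluvial) and covered. Wettable powder diluted in 0.05% surfactant water, sprayed uniformly onto soil at 500 g/ha effective rate. Grown 3 weeks, glasshouse, mean 25° C, then damage rated visually 0–5.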

Assay [6] concerns annual bluegrass. Put plainly: Soil treatment test for upland field. Format: in vivo, Poa annua. As to conditions: 500 g/ha, glass house 25° C., 3 weeks. An outline of the steps: as §2
Assay [7] relates to morning glory. Put plainly: Foliar spread test for upland field. As to conditions: foliar spray 500 ppm, 3 weeks, rank vs non-treated. Format: in vivo, Ipomoea spps. An outline of the steps: (§3)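 Seeds are planted in pots of volcanic ash soil and grown roughly 2 weeks under glass. Foliage then receives a uniform spray of compound at 500 ppm in water with 0.5% surfactant. Herbicidal damage is rated 0–5 after 3 weeks at an average 25° C.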

The subject of assay [8] is green foxtail. In words: Soil treatment test for upland field. As to conditions: 500 g/ha, glass house 25° C., 3 weeks. The format is in vivo, Setaria viridis. An outline of the steps:
as §2

Assay [9] concerns common lambsquartes. Put plainly: Foliar spread test for upland field. Format: in vivo, Chenopodium album. As to conditions: foliar spray 500 ppm, 3 weeks, rank vs non-treated. An outline of the steps: as §3
For assay [10], the system named is Large crabgrass. Put plainly: Foliar spread test for upland field. Format: in vivo, Digitaria adscendens. As to conditions: foliar spray 500 ppm, 3 weeks, rank vs non-treated. An outline of the steps: as §3
Assay [11] relates to green foxtail. Put plainly: Foliar spread test for upland field. Format: in vivo, Setaria viridis. As to conditions: foliar spray 500 ppm, 3 weeks, rank vs non-treated. An outline of the steps:
as §3

Assay [12] has as its system Large crabgrass. Put plainly: Soil treatment test for upland field. The format is in vivo, Digitaria adscendens. As to conditions: 500 g/ha, glass house 25° C., 3 weeks. An outline of the steps:
as §2

Assay [13] deals with livid amaranth. In words: Foliar spread test for upland field. The format is in vivo, Amaranthus lividus. As to conditions: foliar spray 500 ppm, 3 weeks, rank vs non-treated. An outline of the steps:
as §3

Assay [14] has as its system livid amaranth. Put plainly: Soil treatment test for upland field. Format: in vivo, Amaranthus lividus. As to conditions: 500 g/ha, glass house 25° C., 3 weeks. An outline of the steps: as §2
For assay [15], the system named is soybean. In words: Soil treatment test for upland field. The format is in vivo. As to conditions: 500 g/ha, glass house 25° C., 3 weeks. An outline of the steps: as §2
Assay [16] has as its system wheat. In words: Soil treatment test for upland field. The format is in vivo. As to conditions: 500 g/ha, glass house 25° C., 3 weeks. An outline of the steps: as §2
For assay [17], the system named is sugar beat. In words: Soil treatment test for upland field. Format: in vivo. As to conditions: 500 g/ha, glass house 25° C., 3 weeks. An outline of the steps: as §2
For assay [18], the system named is cotton. Put plainly: Soil treatment test for upland field. Format: in vivo. As to conditions: 500 g/ha, glass house 25° C., 3 weeks. An outline of the steps:
as §2

The subject of assay [19] is corn. Put plainly: Soil treatment test for upland field. Format: in vivo. As to conditions: 500 g/ha, glass house 25° C., 3 weeks. An outline of the steps:
as §2

In assay [20] the test system is solgum. Put plainly: Soil treatment test for upland field. Format: in vivo. As to conditions: 500 g/ha, glass house 25° C., 3 weeks. An outline of the steps: as §2
Assay [21] relates to annual bluegrass. Put plainly: Foliar spread test for upland field. As to conditions: foliar spray 500 ppm, 3 weeks, rank vs non-treated. The format is in vivo, Poa annua. An outline of the steps: as §3

As to `CCCC(Oc1cccc(C(F)(F)F)c1)c1nc2cc(F)c(C(F)(F)F)cc2o1` (stereo not drawn) [Compound 474], the results for the “Effects Wheat” value in assay [1] and in assay [16] were 2 and 1, respectively. The “Effects Sugar beat” value in [2] and in [17] was 5 each time. The “Effects Corn” value in [3] and in assay [19] was 2 in each case. Further, the “Effects Solgum” value in assay [4] stood at 2; in assay [20], 1. Besides, in assay [5], the “Effects Barnyardgrass” value came to 5. In addition, the “Effects Annual bluegrass” value turned out to be 5 in assay [6] and 3 in assay [21]. Further, the “Effects Morning glory” value in assay [7] came out at 5. Further, the “Effects Green foxtail” value in [8] and in assay [11] was 5 in each case. In addition, the “Effects Common lambsquarters” value in [9] is given as 5. Moreover, the “Effects Large crabgrass” value in assay [10] and in [12] was 5 throughout. The “Effects Livid amaranth” value in assay [13] and in assay [14] was 5 each time. Also, the “Effects Soybean” value in assay [15] stood at 2. The “Effects Cotton” value in assay [18] is reported as 1.

In the case of `CCCC(Oc1ccc(F)c(C(F)(F)F)c1)c1nc2cc(C#N)c(Cl)cc2o1` (stereo not drawn) [Compound 533], the “Effects Wheat” value turned out to be 2 in [1] and 1 in assay [16]. The “Effects Sugar beat” value in assay [2] and in assay [17] was 5 in each case. The “Effects Corn” value in assay [3] is given as 2; in [19] it was 0. Also, the “Effects Solgum” value in assay [4] is 2; in assay [20], 0. In addition, the “Effects Barnyardgrass” value in assay [5] is given as 3. Moreover, the “Effects Annual bluegrass” value in assay [6] and in assay [21] was 4 in each case. In addition, the “Effects Morning glory” value in [7] is given as 5. Further, the “Effects Green foxtail” value was 5 in assay [8] and 4 in [11]. Further, in [9], the “Effects Common lambsquarters” value was determined as 4. The “Effects Large crabgrass” value in assay [10] is 3; in [12], 5. The “Effects Livid amaranth” value in [13] and in [14] was 5 each time. In addition, the “Effects Soybean” value in assay [15] was found to be 0. The “Effects Cotton” value in assay [18] is given as 0.

As for `CCCC(Oc1cccc(C(F)(F)F)c1)c1nc2cc(C(F)(F)F)ccc2o1` (stereo not drawn) [Compound 200], the “Effects Wheat” value turned out to be 2 in assay [1] and 1 in assay [16]. The results for the “Effects Sugar beat” value in assay [2] and in assay [17] were 4 and 5, respectively. For the same molecule, the “Effects Corn” value in assay [3] amounted to 2; in assay [19], 1. Besides, the “Effects Solgum” value is reported as 2 in assay [4] and 1 in [20]. For the same molecule, the “Effects Barnyardgrass” value in assay [5] turned out to be 5. For the same molecule, the “Effects Annual bluegrass” value in assay [6] is given as 5; in assay [21], 4. For the same molecule, the “Effects Morning glory” value in assay [7] was determined as 3. In addition, the “Effects Green foxtail” value in assay [8] and in assay [11] was 5 each time. Also, the “Effects Common lambsquarters” value in assay [9] is 4. The “Effects Large crabgrass” value in [10] is 3; in [12], 5. In addition, the “Effects Livid amaranth” value in assay [13] was 4; in [14], 5. For the same molecule, in assay [15], the “Effects Soybean” value was 0. Moreover, the “Effects Cotton” value in [18] is recorded as 1.

In the case of `CCCC(Oc1cccc(C(F)(F)F)c1)c1nc2cc(C#N)ccc2o1` (stereo not drawn) [Compound 192], the “Effects Wheat” value in [1] and in assay [16] was 2 throughout. The “Effects Sugar beat” value in [2] is listed as 4; in assay [17] it was 5. Besides, the “Effects Corn” value in assay [3] and in assay [19] was 2 each time. Moreover, the “Effects Solgum” value in assay [4] and in assay [20] was 2 throughout. Further, in assay [5], the “Effects Barnyardgrass” value stood at 3. The “Effects Annual bluegrass” value is recorded as 5 in assay [6] and 4 in assay [21]. Also, the “Effects Morning glory” value in [7] was found to be 2. Moreover, the “Effects Green foxtail” value in assay [8] and in assay [11] was 5 throughout. The “Effects Common lambsquarters” value in assay [9] was 4. Besides, the “Effects Large crabgrass” value is given as 3 in assay [10] and 5 in assay [12]. The “Effects Livid amaranth” value is reported as 4 in assay [13] and 5 in assay [14]. The “Effects Soybean” value in assay [15] is given as 0. Also, the “Effects Cotton” value in assay [18] turned out to be 1.

For `CCC(Oc1cccc(C(F)(F)F)c1)c1nc2cc(Cl)ccc2o1` (stereo not drawn) [Compound 140], the “Effects Wheat” value in assay [1] is 2; in assay [16] it was 0. The “Effects Sugar beat” value in assay [2] and in assay [17] was 3 each time. In addition, the “Effects Corn” value came out at 3 in [3] and 0 in assay [19]. The “Effects Solgum” value is listed as 2 in assay [4] and 1 in assay [20]. Further, the “Effects Barnyardgrass” value in assay [5] was found to be 4. Also, the “Effects Annual bluegrass” value stood at 5 in assay [6] and 2 in [21]. Further, the “Effects Morning glory” value in assay [7] was 3. Also, the entries for the “Effects Green foxtail” value in assay [8] and in assay [11] were 5 and 2, respectively. Also, the “Effects Common lambsquarters” value in assay [9] is 4. In addition, the “Effects Large crabgrass” value in assay [10] amounted to 2; in assay [12], 5. The “Effects Livid amaranth” value in assay [13] was 4; in assay [14], 5. Moreover, the “Effects Soybean” value in [15] worked out at 0. For the same molecule, the “Effects Cotton” value in [18] is on record as 0.

Consider `CCC(Oc1cccc(C(F)(F)F)c1)c1nc2cc(C#N)c(C#N)cc2o1` (stereo not drawn) [Compound 315], for which the “Effects Wheat” value turned out to be 2 in [1] and 1 in [16]. In addition, the “Effects Sugar beat” value in assay [2] and in [17] was 5 each time. In addition, the “Effects Corn” value in [3] stood at 1; in assay [19], 2. Also, the figures for the “Effects Solgum” value in [4] and in [20] were 2 and 1, respectively. The “Effects Barnyardgrass” value in assay [5] is on record as 4. The “Effects Annual bluegrass” value in assay [6] was determined as 5; in assay [21], 2. Further, in assay [7], the “Effects Morning glory” value was 3. In addition, the “Effects Green foxtail” value in assay [8] and in assay [11] was 5 in each case. Moreover, the “Effects Common lambsquarters” value in assay [9] was 5. Moreover, the results for the “Effects Large crabgrass” value in [10] and in assay [12] were 2 and 5, respectively. Besides, the “Effects Livid amaranth” value in assay [13] and in assay [14] was 5 throughout. Moreover, the “Effects Soybean” value in assay [15] turned out to be 1. In addition, the “Effects Cotton” value in assay [18] worked out at 1.

The values are drawn from patent publication US6706664B1, “Benzoxazole compounds, process for the preparation thereof and herbicides” (UBE Industries, Ltd., priority 1999, dated 2004).
